Structures are written as SMILES.

The target in test [1] is T1, CAII (Homo sapiens, UniProt P00918). Briefly: Kinetic analyses of covalent modification, intact protein LC-MS. It counts as binding. Also on record: purchased Sigma Aldrich C6624-500UG; host or cells: E. coli. As to conditions: 0.5 μM CAII; 5-100 μM SF; 0-24 h; 20 °C. The method, then:
The kinetics of binding were investigated by incubation of the resynthesized and purified SFs 2b–e with CAII at a range of concentrations and analysis by intact protein LC–MS over a 24 h period (see Figure S9). The concentration–response was analyzed based on a two-step model of reversible ligand (L) binding and subsequent irreversible covalent modification of the protein (P) (P + L ⇌ P·L → PL) (see Figure S10).[24] Time courses were fit to a single exponential function to give a kobs for each concentration (Figure 3d). These were then fitted using a Michaelis–Menten model to determine kinact (corresponding to the rate of covalent-bond formation) and KI (corresponding to the recognition of the ligand for the protein pocket) (Figure 3e,f). […]. This is consistent with the strong binding of aryl sulfonamides to the CAII Zn^2+ binding pocket.[33] […] The slow rate of the reaction may be attributed to a suboptimal trajectory of the SF group toward the His64 residue in the reversible bound conformation and/or low nucleophilicity of the residue.[14]
The (resynthesized and purified) SF hits (2b–e, 10 mM) were plated into seven 384-well plates with DMSO to make up identical plates with final concentrations of 100, 50, 20, 10, or 5 μM after adding 15 μL of protein stock solution per well. The percentage of DMSO was kept constant. Purified CAII was subsequently added across all plates. Final concentrations were 0.5 μM protein; 100, 50, 20, 10, or 5 μM SF. The plates were sealed and centrifuged, and the first six plates were immediately queued for analysis by intact protein LC–MS at a temperature of 20 °C with the final plate paused for a 24 h timepoint.
5. CAII – kinetic analyzes
5.1. Protocol for kinetic analyzes (CAII)
The (resynthesized and purified) SF hits (2b–e) were plated into seven Greiner 384 white low volume plate from a 10 mM source in DMSO. Differing volumes were added such that the final concentrations for each compound would be: 100, 50, 20, 10, or 5 µM after adding 15 µL of protein stock solution per well. Volumes of DMSO were made to be consistent for every well. Purified CAII diluted from original stock into a buffer made up of HEPES (pH 7.5, 25 mM) and NaCl (50 mM) in distilled MS-grade water (15 µL per well) was subsequently added across the plates. Final concentrations: 0.5 µM protein; 100, 50, 20, 10, or 5 µM SF. The plates were sealed, centrifuged (1 min, 1000 rpm), and the first six plates were immediately queued for analysis by intact protein LC-MS at a temperature of 20 °C with the final plate paused for a 24 h timepoint. The resulting modification yields were plotted in GraphPad Prism (Version 5.0.4) software against the time of sampling.11 Non-linear regression analyzes were conducted using a ‘one-phase association’ model, with the y=0 value constrained to ‘0’ and plateau value constrained to ‘100’. The observed rate constants (kobs, value ‘K’ in GraphPad) were extracted for each compound at each concentration, then replotted against the corresponding compound concentration. Further non-linear regression analyzes were conducted using a ‘Michaelis-Menten’ model, from which kinact values (‘Vmax’ in GraphPad) and KI values (‘Km’) were extracted. […]
To a Labcyte 384LDV plate containing 96 amine functionalized fragments (10 mM) in DMSO (5 µL per well) was added a stock solution of OSu 2a (10 mM) and NEM (30 mM) in DMSO (5 µL per well). The plate was sealed, centrifuged (1 min, 1000 rpm), and allowed to sit at room temperature for 1 h. After the reaction (assumed product concentration: 5 mM), a Labcyte ECHO© 555 Liquid Handler was used to transfer the library of SFs to a Greiner 384 white low volume plate. […]

Test [2] addresses T1, CAII. Nature of the test: Identification of site of covalent modification by tandem MS. Also on record: purchased Sigma Aldrich C6624-500UG; host or cells: E. coli. Particulars: for major site of covalent modification: 2 μM CAII, 50 μM SF, 24 h, 20 °C, trypsin digest LC-MS/MS; for minor site of covalent modification: N-terminal peptide 1MSHHWGYGK9. An excerpt: Tandem MS analyses were subsequently employed for identification of the amino acid residue(s) that was covalently modified. Samples of CAII modified by the resynthesized and purified SFs 2d and 2e were digested using trypsin and analyzed by LC–MS/MS. This identified peptides 59ILNNGH*AFNVEFDDSQDKAVLK80 and 59ILNNGH*AFNVEFDDSQDK76 as the major site(s) of modification on His64 for both 2d (366 Da) (see Figure S6) and 2e (380 Da) (Figure 3b), respectively. Further to this, minor modifications were observed on the N-terminal peptide 1MSHHWGYGK9 at His3 (2d and 2e) and Tyr7 (2d only).
The (resynthesized and purified) SF hits (2d and 2e, 10 mM) were plated into a 384-well plate. Purified CAII was subsequently added across the plate. Final concentrations: 2 μM protein; 50 μM SF. The plate was sealed, centrifuged, and incubated at 20 °C for 24 h, and 15 μL aliquots were subsequently removed and analyzed by intact protein LC–MS. The remaining samples (1 μg) were separated by sodium dodecyl sulfate-polyacrylamide gel electrophoresis to remove excess unbound compounds. Gels were stained with colloidal Comassie InstantBlue, and bands corresponding to CAII were excised, reduced with TCEP (10 mM, 65 °C, 30 min), and alkylated with iodoacetamide (10 mM, rt, 30 min, dark). Samples were digested with trypsin (1:10 E/S, 37 °C, 16 h) in ammonium bicarbonate (100 mM). After removal of the supernatant, peptides were extracted using acetonitrile. Combined supernatants were centrifuged and acidified prior to injection into the LC–MS/MS system. Tandem MS spectra were searched for peptide matches against the sequence for CAII. Raw files were searched using trypsin as the enzyme. Masses corresponding to [SF – HF] were allowed as variable modification(s) on cysteine, histidine, lysine, tyrosine, serine, and threonine as well as the protein N-terminus. MS/MS spectra were manually validated and annotated. […]
4.2. Identification of the site of covalent modification by tandem MS (CAII)
The (resynthesized and purified) SF hits (2d and 2e) were plated into a Greiner 384 PP F-bottom plate from a 10 mM source in DMSO.
Purified CAII diluted from original stock into a buffer made up of HEPES (pH 7.5, 25 mM) and NaCl (50 mM) in distilled MS-grade water (50 µL per well) was subsequently added across the plate. Final concentrations: 2 µM protein; 50 µM SF. The plate was sealed, centrifuged (1 min, 1000 rpm), incubated at 20 °C for 24 h, and 15 µL aliquots were subsequently removed and analyzed by intact protein LC-MS. The remaining samples (1 μg) were separated by SDS-PAGE to remove excess unbound compound. Gels were stained with colloidal Comassie InstantBlue and bands corresponding to CAII were excised, reduced with 10 mM TCEP (65 °C, 30 mins), and alkylated with 10 mM iodoacetamide (r.t., 30 mins, dark). […]

In general, kinact refers to the rate constant of inactivation at saturating inhibitor. As a reminder, the kinact/KI is the maximal inactivation rate divided by the concentration that gives half of it. As to `CC(NC(=O)Cc1ccc(S(=O)(=O)F)cc1)c1cccc(S(N)(=O)=O)c1` (stereo not shown) [2b], at CAII [1], the KI (inactivation) was 8.9 µM, the kinact worked out at 3.2e-05 s⁻¹ and the kinact/KI was 3.6 M⁻¹ s⁻¹.

With `NS(=O)(=O)Cc1cccc(CNC(=O)Cc2ccc(S(=O)(=O)F)cc2)c1` [2c], on CAII [1], the KI (inactivation) stood at 16 µM, the kinact was 3.3e-05 s⁻¹ and the kinact/KI is 2 M⁻¹ s⁻¹.

Turning to `NS(=O)(=O)c1cccc(CNC(=O)Cc2ccc(S(=O)(=O)F)cc2)c1` [2d], on CAII [1], the Ki was < 5 µM, the kinact is 3e-05 s⁻¹ and the kinact/KI was > 6.1 M⁻¹ s⁻¹. Also, on CAII [2], the “major site of covalent modification” value is recorded as “His64”; the “minor site of covalent modification” value was “His3 and Tyr7”.

Regarding `NS(=O)(=O)c1ccc(CCNC(=O)Cc2ccc(S(=O)(=O)F)cc2)cc1` [2e], at CAII [1], the Ki was < 5 µM, the kinact was found to be 1.8e-05 s⁻¹ and the inactivation efficiency (kinact/KI) was > 3.6 M⁻¹ s⁻¹. On CAII [2], the “major site of covalent modification” value is “His64” and the “minor site of covalent modification” value was “His3”.

Values taken from paper PMC10510102, “Efficient Ligand Discovery Using Sulfur(VI) Fluoride Reactive Fragments” (ACS Chemical Biology, 2023).
